Measured values from patent publication US9175355B2, “Methods for determining the presence of antibodies blocking viral infection” (Monogram Biosciences, Inc., priority 2002, dated 2015).

Key:
X4 tropic viruses = settings: inhibitory concentration of drug; U87/CD4/CXCR4
Description: One cell line expresses CD4 plus CCR5 (U87/CD4/CCR5), also referred to as R5 cells in this application. The other cell line expresses CD4 and CXCR4 (U87/CD4/CXCR4) also referred to as X4 cells in this application. The virus entry assay is performed by infecting individual cell cultures with recombinant virus stocks derived from cells transfected with pHIVenv and pHIV luc or pHIVlucΔU3 vectors. pHIVenv vectors contain patient virus derived sequences and express HIV-1 envelope proteins (gp120SU, gp41TM). In this embodiment viruses are evaluated in using R5 and X4 target cells cultured in 96 well plates (FIG. 3A). Typically, R5 and X4 cells are plated one day prior to infection. […] Co-receptor tropism is assessed by comparing the amount of luciferase activity produced in each cell type, both in the presence and absence of drug. In this embodiment, the results of the assay are interpreted by comparing the ability of each virus to preferentially infect (produce luciferase activity) R5 cells or X4 cells, or both X4 and R5 cells if the virus is dual tropic. The ability of the CCR5 or CXCR4 inhibitor to specifically block infection (inhibit luciferase activity) is also evaluated (FIG. 3B).

[1] = system: HIV-1 (NL4-3, JRCSF) with mutations in the GIV motif of gp41; assay: Virus entry assay: T-20 susceptibility of site directed gp41 mutant viruses; type: cell-based; settings: cells expressing CD4, CCR5 and CXCR4; luciferase; compared by IC50
Description: Susceptibility assays for HIV-1 entry inhibitors were performed using packaging host cells consisting of the human embryonic kidney cell line 293 (Cell Culture Facility, UC San Francisco, SF, CA) and target host cells consisting of a human osteosarcoma (HOS) cell line expressing CD4 (HT4) plus CCR5, and CXCR4, or astrocytoma (U-87) cell lines expressing either CD4 and CCR5 or CD4 and CXCR4.
Drug susceptibility testing was performed using pHIVenv and pHIVluc or pHIVlucΔU3. Pseudotyped HIV particles containing envelope proteins encoded by the patient derived segment were produced by transfecting a packaging host cell (HEK 293) with resistance test vector DNA. […] After infection (˜72 h) the target cells are lysed and luciferase activity is measured. […] The amount of luciferase activity detected in the infected cells is used as a direct measure of “infectivity” (FIGS. 1 and 2). […] Drug susceptibility is assessed by comparing the infectivity in the absence of drug to infectivity in the presence of drug. Relative drug susceptibility can be quantified by comparing the susceptibility of the “test” virus to the susceptibility of a well-characterized reference virus (wildtype) derived from a molecular clone of HIV-1, for example NL4-3 or HXB2. […]

Compound	Infection of X4 cells by X4 tropic viruses (luciferase activity) (X4 tropic viruses)	T-20 susceptibility of viruses with one mutation in gp41 motif (DIV, GIM, SIV) vs wildtype virus (GIV) [1]	T-20 susceptibility of viruses with two mutations in GIV motif (DIM, SIM, DTV) vs viruses with one or no mutations [1]
c1cc(CN2CCCNCCNCCCNCC2)ccc1CN1CCCNCCNCCCNCC1 [AMD3100]	blocked		
enfuvirtide		less susceptible	less susceptible
